Reference: US4246263A, “Antiinflammatory and immunoregulatory pyrimidines, their method of use and pharmaceutical compositions” (priority 1979, dated 1981)
Where two headings read alike, the source gives them in different places.

Columns and labels:
[1] = system: azathioprine-sensitive, rosette-forming cells; experiment: mouse E-rosette procedure (restoration of azathioprine-sensitive rosette-forming cells in adult thymectomized mice); assay type: in vivo, mouse (CD-1
Method: (§1) Antiinflammatory activity is reflected in the so-called rat foot edema test, in which the ability of an oral dose of the compound to inhibit an inflammatory reaction is measured, while immunoregulatory activity is assessed by the so-called mouse E-rosette procedure in which the ability of the test compound to restore erythrocyte rosette formation in thymectomized mice is measured. These tests are described in greater detail below.
As mentioned above, the immunoregulatory activity of the compounds of this invention is assessed by the mouse E-rosette procedure. In the mouse, the presence of a thymus is required for full expression of normal rosette formation with sheep erythrocytes [see for example, Bach and Dardenne, Immunol. 25, 353 (1973)]. The procedure examines the ability of a drug to restore azathioprine-sensitive, rosette-forming cells in adult thymectomized mice to the levels of normal animals. Specifically, rosette formation is examined in CD-1 mice thymectomized at 4 weeks of age and left at least 14 days post-surgery before manipulation (ATX mice). The ATX mice are dosed orally either with saline vehicle or drug. Sixteen hours later, single cell suspensions are prepared in Hanks balanced salt solution (HBSS) from the pooled spleens of three mice. To each tube is added 0.1 ml of lymphocytes (6×10^7 /ml) in HBSS and either 0.1 ml of HBSS or 0.1 ml of 40 μg/ml azathioprine in HBSS. After 90 minutes incubation at 37° C., the cells are washed 2× with 5 ml. of HBSS, made back up to 0.2 ml, and 0.2 ml of sheep red blood cells (erythrocytes) at 1.2×10^8 cells/ml. added. Then […] on hemagglutination slides and the number of rosettes counted. The ability of the test compound to restore the number of azathioprine sensitive rosetting cells to normal or higher is determined. In normal mice 42%±12% azathioprine sensitivity is found. In adult thymectomized mice 3±3% azathioprine sensitivity is found.

[2] = system: carrageenin-induced rat foot edema; experiment: carrageenin-induced rat foot edema test; assay type: in vivo, rat (male albino)
Method: as §1
As mentioned above, the antiinflammatory activity of the compounds of the present invention is determined in the standard carrageenin-induced rat foot edema test [described by C. A. Winter et al., Proc. Soc. Exp. Biol. 111, p. 544 (1962)]. In this test, antiinflammatory activity is determined as the inhibition of edema formation in the hind paw of male albino rats (weight 150-190 g.) in response to a subplantar injection of carrageenin. The carrageenin is injected as a 1 percent aqueous suspension (0.05 ml.) 1 hour after oral administration of the drug. Edema formation is then assessed 3 hours after the carrageenin injection by measuring the volume of the injected paw initially as well as at the 3 hour mark. The increase in volume three hours after carrageenin injection constitutes the individual response. Compounds are considered active if the response between the drug-treated animals (six rats/group) and the control group (i.e., animals receiving the vehicle alone) is deemed to be significant on comparison with results afforded by standard compounds like acetylsalicylic acid at 100 mg./kg […] phenylbutazone at 33 mg./kg., both by the oral route of administration. The activity of the compound under test is expressed as the % inhibition of edema at a given oral dose. The ability of compounds to inhibit edema at various oral dosages (mg./kg., i.e. mg. of drug/kg. of rat body weight) is shown in Table II.

[3] = system: humoral immune response to sheep red blood cells; experiment: humoral immune response of mice to sheep red blood cells; assay type: in vivo; conditions: for effect on humoral immune response to sheep red blood cells (immunosuppressive drugs): same conditions, dose of the drugs not given
rat = experiment: acute toxicity in the rat; assay type: in vivo; conditions: rats
Method: (§2) Its oral LD50 in mice is greater than 100 mg./kg. In the rat, it also has an LD50 value greater than 1000 mg./kg. […] No changes in clinical chemistry, hematology or body weight were observed.

[4] = acute toxicity in the rat; assay type: in vivo; conditions: rat, in vivo, po
Method: as §2

[5] = system: ultraviolet light induced erythema; experiment: ultraviolet light induced erythema procedure; assay type: in vivo; conditions: for suppression of erythema (NSAI drugs): ultraviolet light induced erythema, dose not given
mice = experiment: acute oral toxicity in mice; assay type: in vivo
Method: as §2

[6] = system: polyarthritis produced by injection of complete Freund's adjuvant; experiment: polyarthritis produced by injection of complete Freund's adjuvant in Wistar-Lewis rats; assay type: in vivo, rat (Wistar-Lewis); conditions: for effect on weight loss induced by adjuvant disease: rat, in vivo; for suppression of primary and secondary responses: reference NSAI drugs, dose not given
Excerpt: This pattern of antiarthritic activity again distinguishes 4-(2-hydroxyethylthiomethyl)pyridine /from the classical NSAI drugs.

[7] = system: prostaglandin synthesis in MC5-5 cells; experiment: prostaglandin synthesis in MC5-5 cells in vitro; assay type: cell-based; conditions: read-out: IC50, inhibition of prostaglandin synthesis in MC5-5 cells
rats = conditions: oral
water solubility = assay type: physicochemical; conditions: dihydrogen phosphate salt
[8] = oral dosage of 33 mg./kg., 3 hours after carrageenin
[9] = oral dosage of 1 mg./kg., thymectomized mice

SMILES: OCCSCc1ccncn1 [4-(2-hydroxyethylthiomethyl)pyrimidine, 4-(2-Hydroxyethylthiomethyl)pyrimidine]
- restoration of rosette formation ([1]; oral dosage of 1 mg./kg., pyrimidine): 38%
- % Inhibition of Edema [2, 8]: 11%

SMILES: OCCSCc1ccncc1 [4-(2-Hydroxyethylthiomethyl)pyridine]
- effect on humoral immune response to sheep red blood cells ([3]; four daily oral doses, 33 mg./kg.): did not affect the humoral immune response
- % Rosetting Cells ([1]; oral, 0.01 mg./kg.): 16%
- acute toxicity relative to levamisole (rat): less acutely toxic than levamisole
- LD50 [4]: > 1000 mg/kg
- activity in ultraviolet light induced erythema procedure ([5]; 33 mg./kg. p.o.): lack of activity
- acute toxicity relative to levamisole (mice; mice): less acutely toxic than levamisole
- LD50 (mice; mouse, in vivo, po): greater than 100 mg./kg.
- % Inhibition of Edema [2, 8]: 52%
- % Inhibition of Edema ([2]; oral, 3.3 mg./kg.): 16%
- % Inhibition of Edema ([2]; oral, 10 mg./kg.): 29%
- ED50 ([6]; Rattus norvegicus, po): ~33 mg/kg
- effect on the rapid onset, acute inflammation of the adjuvant-injected foot ([6]; day 4 or day 16): no effects
- antiarthritic effect on the secondary response (spread of disease to the uninjected foot) ([6]; p.o.): selective for the slow onset, lymphoid cell mediated, secondary response
- protection from adjuvant polyarthritis ([6]; p.o.): dose-related protection
- effect on weight loss induced by adjuvant disease [6]: does not affect the weight loss
- IC50 [7]: > 100 µM

SMILES: CC(=O)Oc1ccccc1C(=O)O [aspirin, acetylsalicylic acid]
- ulcerogenic effects (rats; 50 mg./kg.): distinct ulcerogenic effects

SMILES: COCCSCc1ccncc1 [CH2 CH2, CH3, 1, 4-(2-Methoxyethylthiomethyl)pyridine]
- % Rosetting Cells [1, 9]: 33%

SMILES: OCCCSCc1ccncc1 [CH2 CH2 CH2, H, 1, 4-(3-Hydroxypropylthiomethyl)pyridine]
- % Rosetting Cells [1, 9]: 36%

SMILES: CN(Cc1cnc2nc(N)nc(N)c2n1)c1ccc(C(=O)N[C@@H](CCC(=O)O)C(=O)O)cc1 [methotrexate]
- effect on humoral immune response to sheep red blood cells (immunosuppressive drugs) [3]: profoundly inhibitory

SMILES: OCC(SCc1ccncc1)c1ccccc1 (stereo not shown)
- % Rosetting Cells [1, 9]: 33%

SMILES: CN1C(C(=O)Nc2ccccn2)=C(O)c2ccccc2S1(=O)=O [Piroxicam, reference compound]
- effect on weight loss induced by adjuvant disease [6]: partially preventing the weight loss
- suppression of primary and secondary responses [6]: effective in suppressing both the primary and secondary responses

SMILES: CC(CO)SCc1ccncc1 (stereo not shown) [drawing 19]
- % Rosetting Cells [1, 9]: 40%

SMILES: OCC(O)CSCc1ccncc1 (stereo not shown) [drawing 17]
- % Rosetting Cells [1, 9]: 57%

SMILES: OC(CSCc1ccncc1)c1ccccc1 (stereo not shown)
- % Rosetting Cells ([1]; oral, 10 mg./kg.): 50%

SMILES: Cn1cnc([N+](=O)[O-])c1Sc1ncnc2nc[nH]c12 [azathioprine]
- effect on humoral immune response to sheep red blood cells (immunosuppressive drugs) [3]: profoundly inhibitory

SMILES: OCCSCCc1ccncc1 [CH2 CH2, H, 2, 4-[2-(2-Hydroxyethylthio)ethyl]pyridine]
- % Rosetting Cells [1, 9]: 50%

SMILES: CC(CO)SCc1ccncc1 (stereo not shown) [drawing 30]
- % Inhibition of Edema [2, 8]: 20%

SMILES: COc1ccc2c(c1)c(CC(=O)O)c(C)n2C(=O)c1ccc(Cl)cc1 [indomethacin]
- suppression of erythema (NSAI drugs) [5]: clearcut suppression of erythema
- ulcerogenic effects (rats; 10 mg./kg.): distinct ulcerogenic effects

SMILES: Oc1ccccc1SCc1ccncc1
- % Rosetting Cells [1, 9]: 59%

SMILES: O=P1(N(CCCl)CCCl)NCCCO1 (stereo not shown) [cyclophosphamide]
- effect on humoral immune response to sheep red blood cells (immunosuppressive drugs) [3]: profoundly inhibitory

SMILES: CC(C)(O)CSCc1ccncc1
- % Rosetting Cells [1, 9]: 39%

SMILES: COc1ccc(C(O)CSCc2ccncc2)cc1 (stereo not shown)
- % Rosetting Cells [1, 9]: 43%

SMILES: O=[N+]([O-])c1ccc(C(O)CSCc2ccncc2)cc1 (stereo not shown)
- % Rosetting Cells [1, 9]: 40%

SMILES: CC(O)CSCc1ccncc1 (stereo not shown) [drawing 21]
- % Rosetting Cells [1, 9]: 56%

SMILES: CC(SCc1ccncc1)C(O)c1ccccc1 (stereo not shown)
- % Rosetting Cells [1, 9]: 33%

SMILES: CC(O)CSCc1ccncc1 (stereo not shown) [drawing 31]
- % Inhibition of Edema [2, 8]: 5%

SMILES: CCCCC1C(=O)N(c2ccccc2)N(c2ccccc2)C1=O [phenylbutazone, reference compound]
- suppression of erythema (NSAI drugs) [5]: clearcut suppression of erythema
- effect on weight loss induced by adjuvant disease [6]: partially preventing the weight loss
- suppression of primary and secondary responses [6]: effective in suppressing both the primary and secondary responses

SMILES: O=P(O)(O)O.OCCSCc1ccncc1 [4-(2-hydroxyethylthiomethyl)pyridinium dihydrogen phosphate]
- water solubility (water solubility): excellent water solubility

SMILES: OCC(O)CSCc1ccncc1 (stereo not shown) [drawing 29]
- % Inhibition of Edema [2, 8]: 17%

SMILES: Sc1ncnc2nc[nH]c12 [6-mercaptopurine]
- effect on humoral immune response to sheep red blood cells (immunosuppressive drugs) [3]: profoundly inhibitory

SMILES: CC(O)C(C)SCc1ccncc1 (stereo not shown)
- % Rosetting Cells [1, 9]: 63%

SMILES: CC(=O)OCCSCc1ccncc1 [CH2 CH2, drawing 27, 1, 4-(2-Acetoxyethylthiomethyl)pyridine]
- % Rosetting Cells [1, 9]: 40%
